# US20260256705A1, “LIPID NANOPARTICLE FORMULATIONS FOR VACCINES” (GLOBAL LIFE SCIENCES SOLUTIONS CANADA ULC, priority 2022, published 2026)
# Test system: Luciferase mRNA
# Assay: Intravenous protein replacement model, Luciferase mRNA LNP
# Type: in vivo, mice
# Conditions: intravenous 0.1 mg/kg, four hours post administration
# Experimental: Two different LNPs according to embodiments of the invention were injected into mice intravenously at 0.1 mg/kg. The payload was Luciferase·mRNA (Trilink-CLEANCAP™ FLuc mRNA (5 moU), Cat #L-7202). The top row of photographs in FIG. 8 showing fluorescence at four hours post administration was achieved by intravenous administration of LNP comprising PNI 516 30%, DPSC 56%, cholesterol 12.5% and DMG-PEG 1.5%. The bottom row in FIG. 8, which is brighter, was achieved by LNP comprising PNI 580 30%, DSPC 56%, cholesterol 12.5%, and DMG-PEG-1.5%.
compound,measurement,value
"CCCCCCCCC(CCCCCC)C(=O)O[C@@H]1[C@@H](OC(=O)C(CCCCCC)CCCCCCCC)CO[C@@H]1COC(=O)CCCN(C)C (stereo partly drawn) [PNI 580, (2R,3S,4S)-2-(((4-(dimethylamino)butanoyl)oxy)methyl)tetrahydrofuran-3,4-diyl bis(2-hexyldecanoate)]",protein expression in vivo (fluorescence),slightly more effective
